Data published in the supplement of paper PMC10307832.

What was measured:
Test in all cases: relative viability (nuclei count vs DMSO), 5 days (fraction); higher = more cells survive
[1] = compound: Cn1cc(-c2cnn3c(N)c(Br)c([C@@H]4CCCNC4)nc23)cn1 + CCNC(=O)c1noc(-c2cc(C(C)C)c(O)cc2O)c1-c1ccc(CN2CCOCC2)cc1 [Luminespib] (partner 0.01 µM)
How it was run: (§1)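 Five library-drug doses in √10 steps were combined with a fixed anchor-drug dose, or a single drug was given alone, by pin tool to lung cancer cell lines in 1536-well plates the day after seeding. Nuclei were stained and counted after 5 days. Relative viability is the nuclei count in treated wells over that in vehicle wells, taken as the median of duplicate plates.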

[2] = compound: Cn1cc(-c2cnn3c(N)c(Br)c([C@@H]4CCCNC4)nc23)cn1 + CS(=O)(=O)N1CCN(Cc2cc3nc(-c4cccc5[nH]ncc45)nc(N4CCOCC4)c3s2)CC1 [Pictilisib] (partner 1 µM)
How it was run: as §1

[3] = compound: Cn1cc(-c2cnn3c(N)c(Br)c([C@@H]4CCCNC4)nc23)cn1 + CC(=O)c1c(C)c2cnc(Nc3ccc(N4CCNCC4)cn3)nc2n(C2CCCC2)c1=O [Palbociclib] (partner 0.5 µM)
How it was run: as §1

[4] = compound: Cn1cc(-c2cnn3c(N)c(Br)c([C@@H]4CCCNC4)nc23)cn1 + COc1cccc2cc(-c3nc([C@H]4CC[C@H](C(=O)O)CC4)n4ncnc(N)c34)[nH]c12 [OSI-027] (partner 0.5 µM)
How it was run: as §1

Cell Line	relative viability ([1]; first compound 0.1581 µM)	relative viability ([1]; first compound 0.5 µM)	relative viability ([1]; first compound 1.581 µM)	relative viability ([1]; first compound 5 µM)	relative viability ([2]; first compound 0.05 µM)	relative viability ([2]; first compound 0.1581 µM)	relative viability ([2]; first compound 0.5 µM)	relative viability ([2]; first compound 1.581 µM)	relative viability ([2]; first compound 5 µM)	relative viability ([3]; first compound 0.05 µM)	relative viability ([3]; first compound 0.1581 µM)	relative viability ([3]; first compound 0.5 µM)	relative viability ([3]; first compound 1.581 µM)	relative viability ([3]; first compound 5 µM)	relative viability ([4]; first compound 0.1581 µM)	relative viability ([4]; first compound 0.5 µM)	relative viability ([4]; first compound 1.581 µM)	relative viability ([4]; first compound 5 µM)	relative viability ([1]; first compound 0.05 µM)	relative viability ([4]; first compound 0.05 µM)
HCC-44	0.995	1.29	0.557	0.771	0.566	0.577	0.63	0.465	0.427	0.876	0.957	0.978	0.964	0.952	0.604	0.683	0.414	0.434		
NCI-H460	0.0269	0.0266	0.0285	0.0325	0.363	0.394	0.357	0.314	0.125	0.227	0.144	0.0866	0.0886	0.0189	0.765	0.515	0.203	0.0935	0.0336	0.725
SK-LU-1	0.207	0.233	0.186	0.165	0.569	0.424	0.458	0.365	0.278	0.388	0.308	0.366	0.323	0.225	0.279	0.237	0.248	0.183	0.184	0.39
NCI-H322M	0.33	0.426	0.376	0.279	0.542	0.5	0.421	0.475	0.377	0.424	0.458	0.452	0.463	0.393	0.356	0.466	0.354	0.242	0.71	0.46
EKVX	0.958	0.797	0.845	0.667	0.507	0.506	0.507	0.469	0.396	0.368	0.376	0.383	0.413	0.355	0.75	0.733	0.71	0.633	0.939	0.676
NCI-H1734	0.185	0.201	0.178	0.149	0.506	0.46	0.475	0.382	0.358	0.387	0.347	0.317	0.323	0.295	0.581	0.563	0.54	0.362	0.197	0.59
ABC-1	0.338	0.484	0.361	0.265	0.763	0.666	0.721	0.54	0.341		1.06	0.872	0.452	0.718	0.58	0.382	0.39	0.264	0.439	0.518
NCI-H520	0.206	0.217	0.219	0.221	0.266	0.318	0.283	0.208	0.267	0.266	0.232	0.231	0.199	0.172	0.215	0.269	0.265	0.288	0.207	0.214
EPLC-272H	0.464	0.314	0.194	0.205	0.289	0.291	0.277	0.211	0.21	0.294	0.312	0.311	0.273	0.25	0.309	0.359	0.224	0.166	0.63	0.256
UMC-11	0.884	0.972	0.556	0.392	0.926	0.782	0.709	0.397	0.431	0.346	0.316	0.312	0.304	0.29	0.427	0.438	0.267	0.279	1.11	0.495
NCI-H1792	0.616	0.439	0.79	0.317	0.318	0.288	0.24	0.241	0.164		0.777	0.663	0.668	0.617	0.91	0.677	0.574	0.719	0.488	
NCI-H1993	0.887	0.543	0.666	0.567	0.816	0.789		0.819	0.686	0.645	0.704	0.584	0.564	0.471	0.551	0.389	0.55	0.54	1.03	0.603
NCI-H1793	0.815	0.233	0.172	0.152	0.306	0.411	0.308	0.21	0.191	0.349	0.281	0.32	0.301	0.31	0.282	0.324	0.309	0.304	0.211	0.286
NCI-H1395	0.536	0.687	0.349	0.379	0.575	0.671	0.562	0.51	0.585	0.628	0.492	0.567	0.421	0.419	0.574	0.631	0.487	0.338	0.762	0.606
HCC-827	0.843	0.485	0.674	0.332	0.999	1.13	0.974	1	0.928	0.48	0.437	0.491	0.471	0.451	0.907	0.71	0.715	0.705	0.551	0.731
ChaGo-K-1	0.537	0.612	0.509	0.452	0.708	0.672	0.65	0.617	0.501	0.956	0.98	0.911	0.869	0.97	0.638	0.61	0.535	0.642	0.574	0.557

Cell Line	relative viability ([1]; first compound 0.1581 µM)	relative viability ([1]; first compound 0.5 µM)	relative viability ([1]; first compound 1.581 µM)	relative viability ([1]; first compound 5 µM)	relative viability ([2]; first compound 0.05 µM)	relative viability ([2]; first compound 0.1581 µM)	relative viability ([2]; first compound 0.5 µM)	relative viability ([2]; first compound 1.581 µM)	relative viability ([2]; first compound 5 µM)	relative viability ([3]; first compound 0.05 µM)	relative viability ([3]; first compound 0.1581 µM)	relative viability ([3]; first compound 0.5 µM)	relative viability ([3]; first compound 1.581 µM)	relative viability ([3]; first compound 5 µM)	relative viability ([4]; first compound 0.1581 µM)	relative viability ([4]; first compound 0.5 µM)	relative viability ([4]; first compound 1.581 µM)	relative viability ([4]; first compound 5 µM)	relative viability ([1]; first compound 0.05 µM)	relative viability ([4]; first compound 0.05 µM)
NCI-H2228	0.132	0.212	0.124	0.112	0.258	0.286	0.297	0.355	0.351	1.03	0.872	0.541	0.393	0.252	0.674	0.592	0.458	0.315	0.138	0.689
NCI-H2170	0.561	0.799	0.931	0.422	0.281	0.299	0.262	0.274	0.295	0.402	0.407	0.366	0.345	0.397	0.801	0.687	0.649	0.653	0.837	0.759
EMC-BAC-2	1.37	1.12	0.879	1.08	0.545	0.561	0.531	0.475	0.509	0.533	0.52	0.527	0.445	0.43	0.367	0.408	0.37	0.355	1.25	0.368
NCI-H23	0.205	0.187	0.215	0.201	0.576	0.506	0.395	0.313	0.198	0.568	0.496	0.552	0.34	0.25	0.549	0.506	0.491	0.268	0.22	0.589
RERF-LC-KJ	1.28	0.693	0.863	0.873	0.593	0.53	0.384	0.359	0.346	0.983	1.04	1.03	0.863	0.712	0.543	0.535	0.527	0.511	1.34	0.639
NCI-H358	0.281	0.437	0.261	0.152	0.314	0.346	0.309	0.352	0.304	0.151	0.134	0.128	0.104	0.111	0.787	0.56	0.616	0.743	0.546	0.808
LC-2-ad	1.11	1.26	1.03	1.08	0.546	0.466	0.335	0.349	0.272	0.499	0.515	0.441	0.435	0.483	0.879	0.905	0.884	0.736	1.01	0.806
HCC-15	0.419	0.396	0.198	0.382	0.798	0.768	0.757	0.634	0.764	0.71	0.785	0.721	0.604	0.591	0.739	0.682	0.566	0.533	0.636	0.781
NCI-H2405	0.858	0.705	0.73	0.439	0.466	0.37	0.396	0.327	0.314	0.529	0.46	0.533	0.452	0.389	0.594	0.652	0.623	0.54	0.717	0.607
LXF-289	0.803	0.645	0.648	0.55	0.827	0.907	0.896	0.712	0.825	0.618	0.663	0.585	0.555	0.654	0.896	0.82	0.82	0.766	0.729	0.853
CAL-12T	0.173	0.252	0.289	0.204	0.416	0.45	0.525	0.389	0.244	0.505	0.569	0.476	0.189	0.202	0.841	0.682	0.266	0.121	0.517	0.554
COR-L23	0.745	0.366	0.24	0.119	0.952	1.16	0.597	0.447	0.257	0.345	0.346	0.356	0.231	0.183	0.927	0.671	0.393	0.255	0.775	0.813
NCI-H1755	0.534	0.394	0.562	0.194	0.472	0.411	0.452	0.292	0.334	0.467	0.494	0.459	0.449	0.425	0.803	0.715	0.693	0.587	0.465	0.74
NCI-H1437	1.2	1.19	0.932	0.861	0.438	0.411	0.418	0.292	0.306	0.311	0.321	0.339	0.259	0.231	1.11	0.954	0.803	0.733	1.13	0.826
NCI-H2085	0.477	0.461	0.417	0.339	0.508	0.441	0.57	0.403	0.469	0.46	0.521	0.51	0.471	0.385	0.954	0.78	0.652	0.431	0.4	0.809
H3255	0.914	1.07	0.938	0.473	0.489	0.488	0.427	0.425	0.327	0.314	0.342	0.323	0.291	0.277	0.523	0.601	0.584	0.481	0.882	0.744
